Among the data in ChEMBL document CHEMBL4811309, “Design, synthesis and antiproliferative activity of novel 2,4-diamino-5-methyleneaminopyrimidine derivatives as potential anticancer agents” (Bioorg Med Chem Lett, 2021) are IC50 values, retold here.

Type in all cases: functional, cell-based
One assay deals with HCT-116. The assay is described as follows: Antiproliferative activity against human HCT-116 cells assessed as reduction in cell viability by MTT assay. (Tetrazolium dyes change colour on reduction, which living cells bring about.)
In a further assay the test system is HT-29. The assay is described as follows: Antiproliferative activity against human HT-29 cells assessed as reduction in cell viability by MTT assay.
A further assay relates to HeLa. The assay is described as follows: Antiproliferative activity against human HeLa cells assessed as reduction in cell viability by MTT assay.
The test system of a further assay is MCF7. In words: Antiproliferative activity against human MCF7 cells assessed as reduction in cell viability by MTT assay.

A word on the IC50: it is the concentration needed to halve the response being measured.

Each structure is given as a SMILES string. Bounds are passed on as bounds.

Consider `CN1CCN(c2ccc(Nc3ncc(/N=C/c4ccc(C(F)(F)F)cc4)c(NC4CCCC4)n3)cc2)CC1`, for which the IC50 with HCT-116 was greater than 100 µM; with HT-29 it was 80.7 µM; in the assay with HeLa, greater than 100 µM; in the assay on MCF7, greater than 100 µM.
For `CC(C)Nc1nc(Nc2ccc(N3CCOCC3)cc2)ncc1/N=C/c1cccs1`, the IC50 was 14.8 µM in the assay with HCT-116, 25.3 µM in the assay with HT-29, greater than 100 µM in the assay on HeLa and greater than 100 µM in the assay with MCF7.
With `CC(C)Nc1nc(Nc2ccc(S(N)(=O)=O)cc2)ncc1/N=C/c1ccccc1`, the IC50 in the assay on HCT-116 was greater than 100 µM; with HT-29, 98.2 µM; in the assay with HeLa, greater than 100 µM; in the assay with MCF7 it was greater than 100 µM.
On to `NS(=O)(=O)c1ccc(Nc2ncc(/N=C/c3ccccc3)c(NC3CCCC3)n2)cc1`, for which the IC50 with HCT-116 stood at 26.1 µM; in the assay on HT-29, 27 µM; in the assay on HeLa, 15.6 µM; in the assay with MCF7, 39.1 µM.
On to `CC(C)Nc1nc(Nc2ccc(N3CCN(C)CC3)cc2)ncc1/N=C/c1ccc(C(F)(F)F)cc1`, for which the IC50 in the assay on HCT-116 was 42.2 µM; in the assay with HT-29, greater than 100 µM; in the assay with HeLa, greater than 100 µM; in the assay with MCF7, greater than 100 µM.
On to `C(=N\c1cnc(Nc2ccc(N3CCOCC3)cc2)nc1NC1CCCC1)/c1ccccc1`, for which the IC50 was greater than 100 µM in the assay on HCT-116, 67.6 µM in the assay on HT-29, greater than 100 µM in the assay with HeLa and greater than 100 µM with MCF7.
As to `CCOC(=O)/C=N/c1cnc(Nc2ccc(N3CCOCC3)cc2)nc1NC(C)C`, the IC50 with HCT-116 worked out at 23.7 µM; in the assay on HT-29, 19.6 µM; with HeLa, 27.7 µM; in the assay with MCF7, 15.2 µM.
Regarding `CC(C)Nc1nc(Nc2ccc(S(N)(=O)=O)cc2)ncc1/N=C/c1cccs1`, the IC50 in the assay with HCT-116 is 82.1 µM; with HT-29, greater than 100 µM; in the assay on HeLa, greater than 100 µM; in the assay with MCF7 it was 50.2 µM.
Turning to `NS(=O)(=O)c1ccc(Nc2ncc(/N=C/c3ccc(C(F)(F)F)cc3)c(NC3CCCC3)n2)cc1`, the IC50 is greater than 100 µM in the assay with HCT-116, greater than 100 µM with HT-29, 21.9 µM in the assay with HeLa and greater than 100 µM with MCF7.
As for `CCOC(=O)/C=N/c1cnc(Nc2ccc(N3CCN(C)CC3)cc2)nc1NC1CCCC1`, the IC50 in the assay with HCT-116 was 17 µM; in the assay with HT-29, 15.1 µM; in the assay with HeLa, 18.9 µM; with MCF7, 42.3 µM.
Regarding `CC(C)Nc1nc(Nc2ccc(N3CCN(C)CC3)cc2)ncc1/N=C/c1ccccc1`, the IC50 was greater than 100 µM with HCT-116, 12.1 µM with HT-29, greater than 100 µM in the assay with HeLa and greater than 100 µM in the assay on MCF7.
Take `FC(F)(F)c1ccc(/C=N/c2cnc(Nc3ccc(N4CCOCC4)cc3)nc2NC2CCCC2)cc1`: the IC50 in the assay on HCT-116 was 97.2 µM; in the assay with HT-29, greater than 100 µM; in the assay with HeLa, greater than 100 µM; with MCF7, greater than 100 µM.
`CN1CCN(c2ccc(Nc3ncc(/N=C/c4cccs4)c(NC4CCCC4)n3)cc2)CC1`: the IC50 came out at 18.9 µM in the assay on HCT-116, 21.7 µM in the assay with HT-29, 25.7 µM in the assay with HeLa and 33.9 µM in the assay with MCF7.
With `CCOC(=O)/C=N/c1cnc(Nc2ccc(N3CCN(C)CC3)cc2)nc1NC(C)C`, the IC50 with HCT-116 came to 13.6 µM; in the assay with HT-29, 7.59 µM; in the assay on HeLa, 11.5 µM; in the assay with MCF7, 12.3 µM.
Take `CC(C)Nc1nc(Nc2ccc(N3CCN(C)CC3)cc2)ncc1/N=C/c1cccs1`: the IC50 in the assay with HCT-116 is greater than 100 µM; in the assay on HT-29, greater than 100 µM; in the assay on HeLa, 77.1 µM; in the assay on MCF7, 91 µM.
In the case of `C(=N\c1cnc(Nc2ccc(N3CCOCC3)cc2)nc1NC1CCCC1)/c1cccs1`, the IC50 with HCT-116 is greater than 100 µM; in the assay on HT-29, 20.8 µM; in the assay on HeLa, greater than 100 µM; with MCF7 it was greater than 100 µM.
With `CC(C)Nc1nc(Nc2ccc(N3CCOCC3)cc2)ncc1/N=C/c1ccccc1`, the IC50 in the assay with HCT-116, in the assay on HT-29, in the assay on HeLa and in the assay on MCF7 was greater than 100 µM throughout.
In the case of `CN1CCN(c2ccc(Nc3ncc(/N=C/c4ccccc4)c(NC4CCCC4)n3)cc2)CC1`, the IC50 in the assay on HCT-116 is 35.2 µM; with HT-29 it was 28.6 µM; in the assay on HeLa it was greater than 100 µM; in the assay on MCF7, greater than 100 µM.
Consider `CCOC(=O)/C=N/c1cnc(Nc2ccc(S(N)(=O)=O)cc2)nc1NC1CCCC1`, for which the IC50 with HCT-116 amounted to 9.64 µM; in the assay with HT-29 it was 23.6 µM; with HeLa it was 20.7 µM; in the assay on MCF7 it was 42.2 µM.
The matching figures for `CCOC(=O)/C=N/c1cnc(Nc2ccc(S(N)(=O)=O)cc2)nc1NC1CC1`: greater than 100 µM, greater than 100 µM, greater than 100 µM and greater than 100 µM.
The corresponding values for `CCOC(=O)/C=N/c1cnc(Nc2ccc(S(N)(=O)=O)cc2)nc1NC(C)C` are 49.1 µM, greater than 100 µM, 83.3 µM and 58.8 µM.
Take `CC(C)Nc1nc(Nc2ccc(S(N)(=O)=O)cc2)ncc1/N=C/c1ccc(C(F)(F)F)cc1`: the IC50 with HCT-116, in the assay with HT-29, with HeLa and in the assay with MCF7 was greater than 100 µM each time.
In the case of `CC(C)Nc1nc(Nc2ccc(N3CCOCC3)cc2)ncc1/N=C/c1ccc(C(F)(F)F)cc1`, the IC50 in the assay on HCT-116, in the assay with HT-29, in the assay with HeLa and in the assay with MCF7 was greater than 100 µM each time.
With `NS(=O)(=O)c1ccc(Nc2ncc(/N=C/c3cccs3)c(NC3CCCC3)n2)cc1`, the IC50 with HCT-116 was 13.3 µM; with HT-29, 9.95 µM; in the assay with HeLa, 10.9 µM; in the assay with MCF7, 23 µM.
Consider `O=c1[nH]cc(F)c(=O)[nH]1` [FLUOROURACIL], for which the IC50 in the assay with HT-29 came to 16.1 µM; in the assay with HeLa, 42.7 µM; with MCF7 it was 18.1 µM.
